According to PubChem BioAssay AID256 (DTP/NCI, 2004):
Values joined by “and” are separate entries in the source; they are usually repeats but may differ in a detail not shown here. Equal entries are not always repeated. Toxic doses and inconclusive results are not listed. How the source made its calls: active means survival T/C of 150% or more; inactive means T/C below 125% in these data.

Tested on: CD2F1 mice, L1210 leukemia ip, survival T/C
Experiment: NCI In Vivo Anticancer Drug Screen. Data for tumor model L1210 Leukemia (intraperitoneal) in CD2F1 (CDF1) mice
Conditions: higher = longer survival
Summary of the method: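 Vehicle-treated tumor-bearing mice served as controls (C) for compound-treated mice (T). Reported figure is T divided by C.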

[1] = endpoint: mean survival time, dose: 100.0 mg/kg/injection, schedule: Q04DX003 (ip), vehicle: saline with Tween-80
[2] = endpoint: mean survival time, dose: 200.0 mg/kg/injection, schedule: Q04DX003 (ip), vehicle: saline with Tween-80
[3] = endpoint: mean survival time, dose: 400.0 mg/kg/injection, schedule: Q04DX003 (ip), vehicle: saline with Tween-80
[4] = endpoint: mean survival time, dose: 100.0 mg/kg/injection, schedule: Q01DX009 (ip), vehicle: saline with Tween-80
[5] = endpoint: mean survival time, dose: 200.0 mg/kg/injection, schedule: Q01DX009 (ip), vehicle: saline with Tween-80
[6] = endpoint: mean survival time, dose: 400.0 mg/kg/injection, schedule: Q01DX009 (ip), vehicle: saline with Tween-80
[7] = endpoint: mean survival time, dose: 12.5 mg/kg/injection, schedule: Q01DX009 (ip), vehicle: saline with Tween-80
[8] = endpoint: mean survival time, dose: 25.0 mg/kg/injection, schedule: Q01DX009 (ip), vehicle: saline with Tween-80

Measured: T/C

N/N=C1/C(=O)c2cccc3cccc1c23
inactive: [1] 100 % of control | [2] 102 % of control | [3] 92 % of control

CC1C(=O)OC2C1CCC1(C)C=CC(=O)C(C)(Cl)C21O (stereo not drawn)
inactive: endpoint: mean survival time, dose: 100.0 mg/kg/injection, schedule: Q04DX002 (ip), vehicle: saline with Tween-80 100 % of control | endpoint: mean survival time, dose: 200.0 mg/kg/injection, schedule: Q04DX002 (ip), vehicle: saline with Tween-80 100 % of control | endpoint: mean survival time, dose: 400.0 mg/kg/injection, schedule: Q04DX002 (ip), vehicle: saline with Tween-80 91 % of control and 87 % of control

CN(C)N=Nc1ccc(N=Nc2ccc(N(CCO)CCO)cc2)cc1
inactive: endpoint: mean survival time, dose: 100.0 mg/kg/injection, schedule: Q01DX001 (ip), vehicle: saline 102 % of control | endpoint: mean survival time, dose: 200.0 mg/kg/injection, schedule: Q01DX001 (ip), vehicle: saline 93 % of control | endpoint: mean survival time, dose: 400.0 mg/kg/injection, schedule: Q01DX001 (ip), vehicle: saline 101 % of control

c1ccc(C(c2ccccc2)[P+](c2ccccc2)(c2ccccc2)c2ccccc2)cc1
inactive: endpoint: mean survival time, dose: 375.0 micrograms/kg/injection, schedule: Q01DX001 (ip), vehicle: gum acacia 92 % of control | endpoint: mean survival time, dose: 375.0 micrograms/kg/injection, schedule: Q01DX009 (ip), vehicle: gum acacia 106 % of control | endpoint: mean survival time, dose: 375.0 micrograms/kg/injection, schedule: Q04DX003 (ip), vehicle: gum acacia 95 % of control | endpoint: mean survival time, dose: 750.0 micrograms/kg/injection, schedule: Q01DX001 (ip), vehicle: gum acacia 103 % of control | endpoint: mean survival time, dose: 750.0 micrograms/kg/injection, schedule: Q01DX009 (ip), vehicle: gum acacia 101 % of control | endpoint: mean survival time, dose: 750.0 micrograms/kg/injection, schedule: Q04DX003 (ip), vehicle: gum acacia 101 % of control | endpoint: mean survival time, dose: 1500.0 micrograms/kg/injection, schedule: Q01DX001 (ip), vehicle: gum acacia 101 % of control | endpoint: mean survival time, dose: 1500.0 micrograms/kg/injection, schedule: Q01DX009 (ip), vehicle: gum acacia 108 % of control | endpoint: mean survival time, dose: 1500.0 micrograms/kg/injection, schedule: Q04DX003 (ip), vehicle: gum acacia 106 % of control | endpoint: mean survival time, dose: 3000.0 micrograms/kg/injection, schedule: Q01DX001 (ip), vehicle: gum acacia 98 % of control | endpoint: mean survival time, dose: 3000.0 micrograms/kg/injection, schedule: Q01DX009 (ip), vehicle: gum acacia 112 % of control | endpoint: mean survival time, dose: 3000.0 micrograms/kg/injection, schedule: Q04DX003 (ip), vehicle: gum acacia 108 % of control | endpoint: mean survival time, dose: 6000.0 micrograms/kg/injection, schedule: Q01DX001 (ip), vehicle: gum acacia 112 % of control | endpoint: mean survival time, dose: 6000.0 micrograms/kg/injection, schedule: Q01DX009 (ip), vehicle: gum acacia 92 % of control | endpoint: mean survival time, dose: 6000.0 micrograms/kg/injection, schedule: Q04DX003 (ip), vehicle: gum acacia 114 % of control

O=C(O)C1CCC[N-]C1.O=C(O)C1CCC[N-]C1.[Cl][Pt+2][Cl] (stereo not drawn)
inactive: endpoint: mean survival time, dose: 5.0 mg/kg/injection, schedule: Q04DX003 (ip), vehicle: saline with Tween-80 95 % of control | endpoint: mean survival time, dose: 10.0 mg/kg/injection, schedule: Q04DX003 (ip), vehicle: saline with Tween-80 112 % of control | endpoint: mean survival time, dose: 20.0 mg/kg/injection, schedule: Q04DX003 (ip), vehicle: saline with Tween-80 107 % of control

NCC(Br)CO (stereo not drawn)
inactive: endpoint: mean survival time, dose: 31.3 mg/kg/injection, schedule: Q01DX001 (ip), vehicle: other 95 % of control | endpoint: mean survival time, dose: 62.5 mg/kg/injection, schedule: Q01DX001 (ip), vehicle: other 95 % of control | endpoint: mean survival time, dose: 125.0 mg/kg/injection, schedule: Q01DX001 (ip), vehicle: other 100 % of control | endpoint: mean survival time, dose: 250.0 mg/kg/injection, schedule: Q01DX001 (ip), vehicle: other 101 % of control | endpoint: mean survival time, dose: 500.0 mg/kg/injection, schedule: Q01DX001 (ip), vehicle: other 97 % of control

O=C(NC(C(=O)O)c1ccccc1)OCc1ccccc1 (stereo not drawn)
inactive: [1] 102 % of control | [2] 107 % of control | [3] 97 % of control

COc1ccc(OC)c(NC(=O)Nc2ccc(S(N)(=O)=O)cc2)c1
inactive: [4] 98 % of control | [5] 93 % of control | [6] 96 % of control

Fc1ccc2c(c1)C(Br)c1ccccc1-2 (stereo not drawn)
inactive: endpoint: mean survival time, dose: 6.25 mg/kg/injection, schedule: Q01DX009 (ip), vehicle: saline with Tween-80 96 % of control | [7] 96 % of control | [8] 105 % of control | [1] 108 % of control | [2] 88 % of control | [3] 97 % of control

CC1CC1C(N)=O (stereo not drawn)
inactive: endpoint: mean survival time, dose: 50.0 mg/kg/injection, schedule: Q04DX002 (ip), vehicle: saline 103 % of control | endpoint: mean survival time, dose: 100.0 mg/kg/injection, schedule: Q04DX002 (ip), vehicle: saline 98 % of control and 102 % of control | endpoint: mean survival time, dose: 200.0 mg/kg/injection, schedule: Q04DX002 (ip), vehicle: saline 98 % of control and 103 % of control | endpoint: mean survival time, dose: 400.0 mg/kg/injection, schedule: Q04DX002 (ip), vehicle: saline 101 % of control and 104 % of control | endpoint: mean survival time, dose: 600.0 mg/kg/injection, schedule: Q04DX002 (ip), vehicle: saline 98 % of control | endpoint: mean survival time, dose: 800.0 mg/kg/injection, schedule: Q04DX002 (ip), vehicle: saline 100 % of control

COC1=CC(=O)C(C2CC(=O)c3c(O)cc(O)cc3O2)=CC1=O (stereo not drawn)
inactive: [4] 101 % of control | [1] 100 % of control | [2] 100 % of control | [3] 98 % of control

CC(C)OC(=S)S
inactive: endpoint: mean survival time, dose: 100.0 mg/kg/injection, schedule: Q01DX009 (ip), vehicle: saline 101 % of control | endpoint: mean survival time, dose: 100.0 mg/kg/injection, schedule: Q04DX003 (ip), vehicle: saline 100 % of control | endpoint: mean survival time, dose: 200.0 mg/kg/injection, schedule: Q01DX009 (ip), vehicle: saline 102 % of control | endpoint: mean survival time, dose: 200.0 mg/kg/injection, schedule: Q04DX003 (ip), vehicle: saline 97 % of control | endpoint: mean survival time, dose: 400.0 mg/kg/injection, schedule: Q01DX009 (ip), vehicle: saline 107 % of control | endpoint: mean survival time, dose: 400.0 mg/kg/injection, schedule: Q04DX003 (ip), vehicle: saline 88 % of control

O=C(O)CSCC(=O)c1ccccc1
inactive: [4] 98 % of control | [1] 94 % of control | [5] 100 % of control | [2] 98 % of control | [6] 98 % of control | [3] 102 % of control

CCCCNC(=O)C1CC2c3cccc4c3C(CN4)CC2N(C)C1 (stereo not drawn)
inactive: endpoint: mean survival time, dose: 50.0 mg/kg/injection, schedule: Q04DX003 (ip), vehicle: saline with Tween-80 94 % of control | [1] 88 % of control

CN1CC(CO)C(O)C2c3cccc4[nH]cc(c34)CC21 (stereo not drawn)
inactive: endpoint: median survival time, dose: 25.0 mg/kg/injection, schedule: Q04DX003 (ip), vehicle: saline with Tween-80 100 % of control | endpoint: median survival time, dose: 50.0 mg/kg/injection, schedule: Q04DX003 (ip), vehicle: saline with Tween-80 100 % of control | endpoint: median survival time, dose: 100.0 mg/kg/injection, schedule: Q04DX003 (ip), vehicle: saline with Tween-80 100 % of control | endpoint: median survival time, dose: 200.0 mg/kg/injection, schedule: Q04DX003 (ip), vehicle: saline with Tween-80 100 % of control

CCOC(=O)COC(CC[P+](c1ccccc1)(c1ccccc1)c1ccccc1)(C(=O)c1ccccc1)c1ccccc1 (stereo not drawn)
inactive: endpoint: mean survival time, dose: 5.0 mg/kg/injection, schedule: Q01DX001 (ip), vehicle: saline with Tween-80 100 % of control | endpoint: mean survival time, dose: 6.25 mg/kg/injection, schedule: Q01DX001 (ip), vehicle: saline with Tween-80 102 % of control | endpoint: mean survival time, dose: 12.5 mg/kg/injection, schedule: Q01DX001 (ip), vehicle: saline with Tween-80 97 % of control | endpoint: mean survival time, dose: 20.0 mg/kg/injection, schedule: Q01DX001 (ip), vehicle: saline with Tween-80 109 % of control | endpoint: mean survival time, dose: 25.0 mg/kg/injection, schedule: Q01DX001 (ip), vehicle: saline with Tween-80 108 % of control

O=C1NCCN1c1ccccc1[N+](=O)[O-]
inactive: endpoint: mean survival time, dose: 12.5 mg/kg/injection, schedule: Q01DX009 (ip), vehicle: other 96 % of control | endpoint: mean survival time, dose: 25.0 mg/kg/injection, schedule: Q01DX009 (ip), vehicle: other 91 % of control | endpoint: mean survival time, dose: 50.0 mg/kg/injection, schedule: Q01DX009 (ip), vehicle: other 96 % of control | endpoint: mean survival time, dose: 100.0 mg/kg/injection, schedule: Q01DX009 (ip), vehicle: other 108 % of control | endpoint: mean survival time, dose: 200.0 mg/kg/injection, schedule: Q01DX009 (ip), vehicle: other 101 % of control

CC(C)(C)OC(=O)CCC(NC(=O)OC(C)(C)C)C(=O)O (stereo not drawn)
inactive: [1] 98 % of control | [2] 93 % of control | [3] 95 % of control

O=C(O)/C=C/C(=O)NC1CCCCC1
inactive: [1] 97 % of control and 101 % of control | [2] 101 % of control and 97 % of control | [3] 98 % of control and 95 % of control

COc1cc(Cl)ccc1NC(=O)Nc1cccc(C(=O)O)c1
inactive: [7] 97 % of control | [8] 90 % of control | endpoint: mean survival time, dose: 50.0 mg/kg/injection, schedule: Q01DX009 (ip), vehicle: saline with Tween-80 90 % of control | [4] 96 % of control | [5] 90 % of control
